Source: patent US6936609B2, “Imidazotriazines for use as phosphodiesterase inhibitors” (Bayer HealthCare AG, priority 2001, dated 2005)

Legend:
PDE 10A = biological target: T1, PDE 10A (Homo sapiens, UniProt Q9Y233); assay: Inhibition of PDE 10A (in vitro enzyme inhibition test); type: biochemical; settings: recombinant full-length PDE10A expressed in Sf9 insect cells; substrate [5',8-3H] adenosine 3',5'-cyclic phosphate; 60 min at room temperature; scintillation proximity beads
T1 construct: is expressed recombinantly in full length in Sf9 insect cells; made in house; host or cells: Sf9 insect cells (Bac-to-Bac baculovirus system); lysate supernatant used as the enzyme preparation
Method: PDE10A (WO 01/29 199, FIG. 1A) is expressed recombinantly in full length in Sf9 insect cells (Invitrogen, Carlsbad, Calif.) with the aid of the Bac-to-Bac™ Baculovirus expression system of Life Technologies (Gaithersburg, Md.). 48 h after the infection, the cells are harvested and suspended in 20 ml (per 1 l of culture) of lysis buffer (50 mM tris HCl, pH 7.4, 50 mM NaCl, 1 mM MgCl2, 1.5 mM EDTA, 10% glycerol plus 20 μl of Protease Inhibitor Cocktail Set III [CalBiochem, La Jolla, Calif. USA]). The cells are treated at 4° C. for 1 minute with ultrasound and subsequently centrifuged at 10000 rpm for 30 minutes at 4° C. The supernatant (PDE10A preparation) was collected and stored at −20° C.
The test substances are dissolved and serially diluted in 100% DMSO for the determination of their in vitro action on PDE 10A. Typically, dilution series of 200 μM to 1.6 μM are prepared (resulting final concentrations in the test: 4 μM to 0.032 μM). In each case, 2 μl of the diluted substance solutions are introduced into the wells of microtitre plates (Isoplate; Wallac Inc., Atlanta, Ga.). 50 μl of a dilution of the PDE10A preparation described above are subsequently added. The dilution of the PDE10A preparation is chosen such that during the later incubation less than 70% of the substrate is reacted (typical dilution: 1:10000; dilution buffer: 50 mM tris/HCl pH 7.5, 8.3 mM MgCl2, 1.7 mM EDTA, 0.2% BSA). The substrate, [5′,8-^3H] adenosine 3′, 5′-cyclic phosphate (1 μCi/μl; Amersham Pharmacia Biotech., Piscataway, N.J.) is diluted 1:2000 to a concentration of 0.0005 μCi/μl with assay buffer (50 mM tris/HCl pH 7.5, 8.3 mM MgCl2, 1.7 mM EDTA). The enzyme reaction is finally started by addition of 50 μl (0.025 μCi) of the diluted substrate. The test batches are incubated at room temperature for 60 min and the reaction is stopped by addition of 25 μl of a suspension containing 18 mg/ml of Yttrium Scintillation Proximity Beads (Amersham Pharmacia Biotech., Piscataway, N.J.). The microtitre plates are sealed using a film and allowed to stand at room temperature for 60 min. The plates are subsequently measured for 30 s per well in a Microbeta scintillation counter (Wallac Inc., Atlanta, Ga.). IC50 values are determined with the aid of graphic plotting of the substance concentration against the percentage inhibition.

T1 sequence (Q9Y233 1-779 isoform Q9Y233-1): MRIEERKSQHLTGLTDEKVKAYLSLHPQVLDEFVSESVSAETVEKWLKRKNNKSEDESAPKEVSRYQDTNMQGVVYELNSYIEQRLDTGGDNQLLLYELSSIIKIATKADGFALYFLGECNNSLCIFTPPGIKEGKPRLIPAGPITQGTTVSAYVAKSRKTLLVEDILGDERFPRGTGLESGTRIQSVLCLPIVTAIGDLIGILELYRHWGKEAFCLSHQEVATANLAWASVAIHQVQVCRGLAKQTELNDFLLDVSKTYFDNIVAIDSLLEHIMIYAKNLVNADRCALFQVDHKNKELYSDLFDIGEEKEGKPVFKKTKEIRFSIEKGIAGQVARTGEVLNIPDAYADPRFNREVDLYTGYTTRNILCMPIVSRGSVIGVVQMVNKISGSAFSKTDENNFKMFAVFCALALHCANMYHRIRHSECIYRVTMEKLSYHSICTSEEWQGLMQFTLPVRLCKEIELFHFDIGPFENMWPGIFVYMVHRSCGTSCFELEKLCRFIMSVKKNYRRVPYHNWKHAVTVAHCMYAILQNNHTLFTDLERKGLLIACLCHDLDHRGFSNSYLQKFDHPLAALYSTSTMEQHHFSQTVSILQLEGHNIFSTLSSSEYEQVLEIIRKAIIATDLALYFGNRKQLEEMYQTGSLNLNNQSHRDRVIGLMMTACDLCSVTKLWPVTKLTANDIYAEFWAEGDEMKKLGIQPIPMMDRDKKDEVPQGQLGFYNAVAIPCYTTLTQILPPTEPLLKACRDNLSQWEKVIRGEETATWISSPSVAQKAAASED

| IC50 (PDE 10A) | melting point | Compound |
| --- | --- | --- |
| 460 nM | – | COc1ccc(-c2nc(SCc3cccnc3)c3c(C)nc(C4CCCC4)n3n2)cc1OC [Example 12, 7-Cyclopentyl-2-(3,4-dimethoxyphenyl)-5-methyl-4-[(3-pyridinylmethyl)sulphanyl]-imidazo[5,1-f][1,2,4]triazine] |
| 210 nM | – | COc1ccc(Nc2nc(-c3ccc(OC)c(OC)c3)nn3c(C4CCCC4)nc(C)c23)cc1Cl [Example 16, N-(3-Chloro-4-methoxyphenyl)-7-cyclopentyl-2-(3,4-dimethoxyphenyl)-5-methyl-imidazo[5,1-f][1,2,4]triazin-4-amine] |
| 2400 nM | – | CCCc1nc(C)c2c(Nc3cccc(O)c3)nc(-c3ccccc3OCC)nn12 [Example 43, 3-{[2-(2-Ethoxyphenyl)-5-methyl-7-propylimidazo[5,1-f][1,2,4]triazin-4-yl]-amino}phenol] |
| 91 nM | 244 °C | COc1ccc(Nc2nc(-c3ccc(OC)c(OC)c3)nn3c(C4CCCC4)nc(C)c23)c(OC)c1 [Example 18, N-[7-Cyclopentyl-2-(3,4-dimethoxyphenyl)-5-methylimidazo[5,1-f][1,2,4]triazin-4-yl]-N-(2,4-dimethoxyphenyl)amine] |
| 68 nM | 219 to 220 °C | COc1cc(Nc2nc(-c3ccc(Br)cc3)nn3c(C)nc(C)c23)cc(OC)c1OC [Example 48, N-[2-(4-Bromophenyl)-5,7-dimethylimidazo[5,1-f][1,2,4]triazin-4-yl]-N-(3,4,5-trimethoxyphenyl)amine] |
| 360 nM | – | COc1cc(CNc2nc(-c3ccc(OC)c(OC)c3)nn3c(C)nc(C)c23)cc(OC)c1 [Example 3, N-(3,5-Dimethoxybenzyl)-2-(3,4-dimethoxyphenyl)-5,7-dimethylimidazo[5,1-f]-[1,2,4]triazin-4-amine] |
| – | 180 °C | COc1ccc(-c2nc(Nc3cc(C)c(OC)c(C)c3)c3c(C)nc(C4CCCC4)n3n2)cc1OC [Example 15, 7-Cyclopentyl-2-(3,4-dimethoxyphenyl)-N-(4-methoxy-3,5-dimethylphenyl)-5-methylimidazo[5,1-f][1,2,4]triazin-4-amine] |
| – | 194 to 195 °C | COc1ccc(-c2nc(Nc3cc(OC)c(OC)c(OC)c3)c3c(C)nc(C)n3n2)cc1Cl [Example 34, 2-(3-Chloro-4-methoxyphenyl)-N-(3,4,5-trimethoxyphenyl)-5,7-dimethylimidazo-[5,1-f][1,2,4]triazin-4-amine] |
| – | 98 to 99 °C | CCCc1nc(C)c2c(NCc3ccc(OC)cc3OC)nc(-c3ccccc3OCC)nn12 [Example 46, N-(2,4-Dimethoxybenzyl)-2-(2-ethoxyphenyl)-5-methyl-7-propylimidazo[5,1-f]-[1,2,4]triazin-4-amine] |
| – | 213 °C | COc1ccc(-c2nc(Oc3cc(OC)c(OC)c(OC)c3)c3c(C)nc(C)n3n2)cc1Cl [Example 29, 2-(3-Chloro-4-methoxyphenyl)-5,7-dimethyl-4-(3,4,5-trimethoxyphenoxy)imidazo-[5,1-f][1,2,4]triazine] |
| – | 161 °C | COc1ccc(-c2nc(SCc3cccnc3)c3c(C)nc(C)n3n2)cc1OC [Example 4, 2-(3,4-Dimethoxyphenyl)-5,7-dimethyl-4-[(3-pyridinylmethyl)sulphanyl]imidazo-[5,1-f][1,2,4]triazine] |
| – | 188 to 190 °C | CCOc1ccc(CCNc2nc(-c3ccc(Br)cc3)nn3c(C)nc(C)c23)cc1OC [Example 35, 2-(4-Bromophenyl)-N-[2-(4-ethoxy-3-methoxyphenyl)ethyl]-5,7-dimethylimidazo-[5,1-f][1,2,4]triazin-4-amine] |
| – | 195 °C | COc1ccc(Nc2nc(-c3ccc(OC)c(OC)c3)nn3c(C)nc(C)c23)cc1Cl [Example 13, N-(3-Chloro-4-methoxyphenyl)-2-(3,4-dimethoxyphenyl)-5,7-dimethylimidazo [5,1-f][1,2,4]triazin-4-amine] |
| – | 126 °C | COc1cccc(Nc2nc(-c3ccc(OC)c(OC)c3)nn3c(C4CCCC4)nc(C)c23)c1 [Example 23, 7-Cyclopentyl-2-(3,4-dimethoxyphenyl)-N-(3-methoxyphenyl)-5-methylimidazo-[5,1-f][1,2,4]triazin-4-amine] |
| 45 nM | 212 to 214 °C | COc1cc(Nc2nc(-c3ccc(C)cc3)nn3c(C)nc(C)c23)cc(OC)c1OC [Example 53, N-[5,7-Dimethyl-2-(4-methylphenyl)imidazo[5,1-f][1,2,4]triazin-4-yl]-N-(3,4,5-trimethoxyphenyl)amine] |
| 13 nM | – | COc1ccc(-c2nc(Nc3cc(OC)c(OC)c(OC)c3)c3c(C)nc(C4CCCC4)n3n2)cc1S(=O)(=O)N1CCOCC1 [Example 24, 7-Cyclopentyl-2-[4-methoxy-3-(4-morpholinylsulphonyl)phenyl]-5-methyl-N-(3,4,5-trimethoxyphenyl)imidazo[5,1-f][1,2,4]triazin-4-amine] |
| – | 173 °C | COc1ccc(-c2nc(Nc3cc(C)c(OC)c(C)c3)c3c(C)nc(C)n3n2)cc1OC [Example 14, 2-(3,4-Dimethoxyphenyl)-N-(4-methoxy-3,5-dimethylphenyl)-5,7-dimethylimidazo-[5,1-f][1,2,4]triazin-4-amine] |
| – | 166 °C | CCC(CC)c1nc(C)c2c(Oc3cc(OC)c(OC)c(OC)c3)nc(-c3ccc(OC)c(Cl)c3)nn12 [Example 32, 2-(3Chloro-4-methoxyphenyl)-7-(1-ethylpropyl)-5-methyl-4-(3,4,5-trimethoxyphenoxy)imidazo[5,1-f][1,2,4]triazine] |
| – | 119 °C | CCc1nc(C2CCCC2)n2nc(-c3ccc(OC)c(S(=O)(=O)N4CCOCC4)c3)nc(Oc3cc(OC)c(OC)c(OC)c3)c12 [Example 25, 7-Cyclopentyl-5-ethyl-2-[4-methoxy-3-(4-morpholinylsulphonyl)phenyl]-4-(3,4,5-trimethoxyphenoxy)imidazo[5,1-f][1,2,4]triazine] |
